In US20240246942A1, “KINASE INHIBITORS FOR THE TREATMENT OF NEURODEGENERATIVE DISEASES” (priority 2020, published 2024) one finds remaining activity data, which are given here for three compounds.

What all share (test): biochemical
Experiment [1] deals with T1, panel of 374 wild-type kinases (Homo sapiens, UniProt P36897).
T1 construct: purchased Reaction Biology Corporation
T1 sequence (P36897 34-503): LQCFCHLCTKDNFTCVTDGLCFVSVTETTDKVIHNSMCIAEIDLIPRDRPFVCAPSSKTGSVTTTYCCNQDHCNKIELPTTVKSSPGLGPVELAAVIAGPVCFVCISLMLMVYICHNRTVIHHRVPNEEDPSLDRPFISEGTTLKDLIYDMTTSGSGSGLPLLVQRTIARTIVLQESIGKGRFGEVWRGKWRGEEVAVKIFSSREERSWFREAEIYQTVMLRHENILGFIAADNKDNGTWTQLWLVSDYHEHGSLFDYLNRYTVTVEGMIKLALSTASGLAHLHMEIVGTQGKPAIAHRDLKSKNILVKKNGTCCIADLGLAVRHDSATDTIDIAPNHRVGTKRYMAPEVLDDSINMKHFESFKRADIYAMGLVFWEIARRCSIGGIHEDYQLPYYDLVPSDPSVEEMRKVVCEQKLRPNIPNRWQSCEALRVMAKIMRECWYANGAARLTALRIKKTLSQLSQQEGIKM
As to conditions: read-out: % Enzyme Activity (relative to DMSO controls), ALK5/TGFBR1.

Experiment [2] concerns the target T2, panel of 374 wild-type kinases (Homo sapiens, UniProt Q15375).
T2 construct: purchased Reaction Biology Corporation
The following applies: read-out: % Enzyme Activity (relative to DMSO controls), EPHA7.

Experiment [3] addresses T3, panel of 374 wild-type kinases (Homo sapiens, UniProt P41279).
T3 construct: purchased Reaction Biology Corporation
The following applies: read-out: % Enzyme Activity (relative to DMSO controls), COT1/MAP3K8.

The target of experiment [4] is T4, panel of 374 wild-type kinases (Homo sapiens, UniProt O94804).
T4 construct: purchased Reaction Biology Corporation
The following applies: read-out: % Enzyme Activity (relative to DMSO controls), LOK/STK10.

In experiment [5] the target is T5, panel of 374 wild-type kinases (Homo sapiens, UniProt Q8IYT8).
T5 construct: purchased Reaction Biology Corporation
T5 sequence (Q8IYT8 1-1036): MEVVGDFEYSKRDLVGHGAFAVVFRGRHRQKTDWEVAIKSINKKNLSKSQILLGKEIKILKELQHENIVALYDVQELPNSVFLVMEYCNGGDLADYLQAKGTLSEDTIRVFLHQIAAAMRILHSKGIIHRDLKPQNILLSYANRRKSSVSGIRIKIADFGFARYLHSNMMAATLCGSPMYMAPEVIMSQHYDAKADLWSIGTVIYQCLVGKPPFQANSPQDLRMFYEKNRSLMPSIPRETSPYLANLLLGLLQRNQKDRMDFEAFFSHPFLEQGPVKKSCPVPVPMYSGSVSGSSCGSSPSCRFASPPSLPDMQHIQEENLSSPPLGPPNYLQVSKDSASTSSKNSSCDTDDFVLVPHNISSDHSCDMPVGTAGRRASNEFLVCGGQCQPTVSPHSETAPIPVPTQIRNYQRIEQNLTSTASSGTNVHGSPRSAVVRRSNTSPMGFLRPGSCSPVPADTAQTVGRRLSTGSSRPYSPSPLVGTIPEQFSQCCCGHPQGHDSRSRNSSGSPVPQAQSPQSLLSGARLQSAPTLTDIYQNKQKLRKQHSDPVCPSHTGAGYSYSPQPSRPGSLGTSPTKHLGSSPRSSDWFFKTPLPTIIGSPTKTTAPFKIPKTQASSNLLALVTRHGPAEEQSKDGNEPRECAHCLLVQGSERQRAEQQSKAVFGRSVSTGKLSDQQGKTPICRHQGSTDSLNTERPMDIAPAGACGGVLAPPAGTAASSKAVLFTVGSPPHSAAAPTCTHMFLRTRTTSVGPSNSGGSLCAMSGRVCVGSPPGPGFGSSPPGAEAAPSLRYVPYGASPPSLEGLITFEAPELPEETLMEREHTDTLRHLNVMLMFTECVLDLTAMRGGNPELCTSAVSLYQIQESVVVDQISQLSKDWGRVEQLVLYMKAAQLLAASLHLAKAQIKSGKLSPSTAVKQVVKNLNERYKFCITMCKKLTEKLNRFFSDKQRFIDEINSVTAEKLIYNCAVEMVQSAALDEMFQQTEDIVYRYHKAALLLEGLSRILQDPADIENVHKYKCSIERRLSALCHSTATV
As to conditions: read-out: % Enzyme Activity (relative to DMSO controls), kinase ULK2.

In experiment [6] the target is T6, panel of 374 wild-type kinases (Homo sapiens, UniProt Q8NEV4).
T6 construct: purchased Reaction Biology Corporation
As to conditions: MYO3A, read-out: % Enzyme Activity (relative to DMSO controls).

Experiment [7] has as its target T7, panel of 374 wild-type kinases (Homo sapiens, UniProt Q9NY57).
T7 construct: purchased Reaction Biology Corporation
As to conditions: read-out: % Enzyme Activity (relative to DMSO controls), kinase STK32B/YANK2.

Experiment [8] concerns the target T8, panel of 374 wild-type kinases (Homo sapiens, UniProt O15264).
T8 construct: purchased Reaction Biology Corporation
T8 sequence (O15264 1-365): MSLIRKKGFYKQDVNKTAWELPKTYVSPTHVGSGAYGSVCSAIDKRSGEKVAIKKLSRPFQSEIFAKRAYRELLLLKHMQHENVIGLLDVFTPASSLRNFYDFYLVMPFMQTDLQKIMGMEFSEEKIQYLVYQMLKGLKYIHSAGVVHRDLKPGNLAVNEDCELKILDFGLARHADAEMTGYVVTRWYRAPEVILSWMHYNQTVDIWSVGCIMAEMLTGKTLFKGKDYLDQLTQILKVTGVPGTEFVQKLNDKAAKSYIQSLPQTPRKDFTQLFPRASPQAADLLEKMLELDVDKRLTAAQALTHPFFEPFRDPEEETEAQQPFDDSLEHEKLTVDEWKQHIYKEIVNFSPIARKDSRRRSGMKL
As to conditions: read-out: % Enzyme Activity (relative to DMSO controls), kinase P38d/MAPK13.

T3 sequence (P41279 whole entry): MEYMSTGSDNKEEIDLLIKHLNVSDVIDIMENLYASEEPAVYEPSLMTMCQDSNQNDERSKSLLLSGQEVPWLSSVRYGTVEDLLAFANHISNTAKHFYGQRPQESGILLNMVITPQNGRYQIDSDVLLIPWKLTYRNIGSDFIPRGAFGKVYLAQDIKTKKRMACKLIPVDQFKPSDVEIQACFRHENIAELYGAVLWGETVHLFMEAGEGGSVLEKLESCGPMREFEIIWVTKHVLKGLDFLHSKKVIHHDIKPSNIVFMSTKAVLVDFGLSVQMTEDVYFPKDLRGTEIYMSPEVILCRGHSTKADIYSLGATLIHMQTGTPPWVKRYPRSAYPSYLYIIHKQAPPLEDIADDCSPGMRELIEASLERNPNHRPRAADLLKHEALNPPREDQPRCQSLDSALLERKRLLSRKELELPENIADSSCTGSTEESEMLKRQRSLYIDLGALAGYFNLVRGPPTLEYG
T2 sequence (Q15375 28-998): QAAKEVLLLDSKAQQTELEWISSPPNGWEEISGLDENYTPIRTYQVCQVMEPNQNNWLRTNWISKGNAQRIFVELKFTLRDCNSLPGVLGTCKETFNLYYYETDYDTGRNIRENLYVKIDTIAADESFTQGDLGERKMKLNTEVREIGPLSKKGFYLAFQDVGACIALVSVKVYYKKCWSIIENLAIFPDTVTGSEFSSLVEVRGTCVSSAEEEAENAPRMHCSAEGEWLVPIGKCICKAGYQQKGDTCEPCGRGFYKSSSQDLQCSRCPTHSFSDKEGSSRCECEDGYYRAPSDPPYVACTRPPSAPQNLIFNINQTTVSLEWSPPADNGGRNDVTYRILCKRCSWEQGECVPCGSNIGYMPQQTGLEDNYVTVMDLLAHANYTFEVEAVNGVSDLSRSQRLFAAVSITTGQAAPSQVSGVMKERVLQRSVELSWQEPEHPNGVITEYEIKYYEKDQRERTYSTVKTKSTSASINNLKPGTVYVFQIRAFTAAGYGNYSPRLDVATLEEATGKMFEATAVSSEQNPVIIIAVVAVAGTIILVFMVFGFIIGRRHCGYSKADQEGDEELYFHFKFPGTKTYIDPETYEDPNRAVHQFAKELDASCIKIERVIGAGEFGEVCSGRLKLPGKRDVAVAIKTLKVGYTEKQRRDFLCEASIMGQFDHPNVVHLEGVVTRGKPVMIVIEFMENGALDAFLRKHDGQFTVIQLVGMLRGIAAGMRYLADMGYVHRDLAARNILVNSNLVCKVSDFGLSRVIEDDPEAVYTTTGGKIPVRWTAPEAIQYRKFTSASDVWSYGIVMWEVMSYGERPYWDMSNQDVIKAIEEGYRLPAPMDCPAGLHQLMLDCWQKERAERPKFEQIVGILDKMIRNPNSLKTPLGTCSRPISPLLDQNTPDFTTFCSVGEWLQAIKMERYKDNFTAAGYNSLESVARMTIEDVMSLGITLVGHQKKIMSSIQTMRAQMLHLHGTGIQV
T4 sequence (O94804 whole entry): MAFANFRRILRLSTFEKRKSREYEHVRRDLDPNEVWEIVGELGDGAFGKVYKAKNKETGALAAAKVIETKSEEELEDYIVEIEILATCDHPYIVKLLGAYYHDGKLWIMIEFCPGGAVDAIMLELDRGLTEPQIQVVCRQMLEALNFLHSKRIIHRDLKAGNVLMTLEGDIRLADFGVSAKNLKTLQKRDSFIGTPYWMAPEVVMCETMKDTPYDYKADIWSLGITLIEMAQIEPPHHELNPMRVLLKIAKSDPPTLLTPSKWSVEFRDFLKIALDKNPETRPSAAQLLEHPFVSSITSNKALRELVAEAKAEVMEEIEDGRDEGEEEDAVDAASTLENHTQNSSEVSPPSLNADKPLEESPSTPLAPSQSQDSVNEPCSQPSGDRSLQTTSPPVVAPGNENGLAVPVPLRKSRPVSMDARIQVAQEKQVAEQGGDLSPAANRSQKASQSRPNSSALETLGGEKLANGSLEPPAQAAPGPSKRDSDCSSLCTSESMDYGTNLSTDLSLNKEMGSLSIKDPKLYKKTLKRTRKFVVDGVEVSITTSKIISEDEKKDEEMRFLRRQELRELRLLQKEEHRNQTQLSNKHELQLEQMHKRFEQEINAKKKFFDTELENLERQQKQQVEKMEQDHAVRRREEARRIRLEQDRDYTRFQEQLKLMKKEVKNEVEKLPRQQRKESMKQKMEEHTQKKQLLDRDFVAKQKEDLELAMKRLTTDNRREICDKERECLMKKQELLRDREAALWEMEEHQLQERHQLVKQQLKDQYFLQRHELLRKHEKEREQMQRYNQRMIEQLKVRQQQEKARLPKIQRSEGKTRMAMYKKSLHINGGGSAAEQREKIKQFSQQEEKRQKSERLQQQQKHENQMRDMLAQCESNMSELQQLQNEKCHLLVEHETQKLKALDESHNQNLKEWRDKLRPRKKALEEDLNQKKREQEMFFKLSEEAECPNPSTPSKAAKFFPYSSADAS
T6 sequence (Q8NEV4 whole entry): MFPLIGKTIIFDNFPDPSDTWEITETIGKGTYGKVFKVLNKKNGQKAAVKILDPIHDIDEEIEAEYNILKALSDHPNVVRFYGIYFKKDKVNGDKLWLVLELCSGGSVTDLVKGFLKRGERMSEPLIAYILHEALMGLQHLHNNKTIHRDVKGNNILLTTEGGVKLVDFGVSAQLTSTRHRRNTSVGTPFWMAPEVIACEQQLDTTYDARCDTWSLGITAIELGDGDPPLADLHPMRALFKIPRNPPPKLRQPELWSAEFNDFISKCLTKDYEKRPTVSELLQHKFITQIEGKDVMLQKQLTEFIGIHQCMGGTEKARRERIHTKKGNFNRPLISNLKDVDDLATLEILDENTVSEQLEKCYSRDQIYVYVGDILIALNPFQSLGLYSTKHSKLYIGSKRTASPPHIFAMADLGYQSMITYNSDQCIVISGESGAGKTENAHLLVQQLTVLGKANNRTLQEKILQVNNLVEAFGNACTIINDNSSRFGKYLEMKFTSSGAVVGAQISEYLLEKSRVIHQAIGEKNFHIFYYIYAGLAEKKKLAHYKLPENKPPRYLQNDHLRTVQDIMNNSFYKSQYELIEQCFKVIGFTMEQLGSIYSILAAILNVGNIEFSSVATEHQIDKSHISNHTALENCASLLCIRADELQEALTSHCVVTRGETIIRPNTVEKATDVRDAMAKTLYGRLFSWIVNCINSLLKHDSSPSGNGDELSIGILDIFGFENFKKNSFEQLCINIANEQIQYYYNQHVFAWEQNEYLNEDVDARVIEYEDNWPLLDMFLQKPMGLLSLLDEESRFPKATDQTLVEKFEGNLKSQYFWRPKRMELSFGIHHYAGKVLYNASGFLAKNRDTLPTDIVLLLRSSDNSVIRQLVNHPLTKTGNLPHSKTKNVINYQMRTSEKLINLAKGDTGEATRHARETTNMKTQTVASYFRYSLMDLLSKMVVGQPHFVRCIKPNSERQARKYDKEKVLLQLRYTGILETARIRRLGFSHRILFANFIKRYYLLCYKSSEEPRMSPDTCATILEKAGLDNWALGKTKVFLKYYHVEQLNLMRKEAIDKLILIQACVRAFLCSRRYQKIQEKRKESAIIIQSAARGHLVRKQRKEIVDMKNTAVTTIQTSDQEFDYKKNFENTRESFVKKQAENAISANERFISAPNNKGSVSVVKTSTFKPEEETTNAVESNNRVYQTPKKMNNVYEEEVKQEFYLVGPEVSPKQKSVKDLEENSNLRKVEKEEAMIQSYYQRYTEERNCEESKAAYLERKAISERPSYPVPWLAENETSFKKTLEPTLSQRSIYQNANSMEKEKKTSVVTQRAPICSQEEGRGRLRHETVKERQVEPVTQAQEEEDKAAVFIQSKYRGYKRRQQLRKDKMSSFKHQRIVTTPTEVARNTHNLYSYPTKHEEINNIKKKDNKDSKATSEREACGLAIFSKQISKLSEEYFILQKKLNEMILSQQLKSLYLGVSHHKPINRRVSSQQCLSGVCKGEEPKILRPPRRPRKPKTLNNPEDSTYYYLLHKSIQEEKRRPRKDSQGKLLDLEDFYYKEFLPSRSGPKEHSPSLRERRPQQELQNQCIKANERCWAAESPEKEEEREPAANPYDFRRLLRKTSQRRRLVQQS
T7 sequence (Q9NY57 whole entry): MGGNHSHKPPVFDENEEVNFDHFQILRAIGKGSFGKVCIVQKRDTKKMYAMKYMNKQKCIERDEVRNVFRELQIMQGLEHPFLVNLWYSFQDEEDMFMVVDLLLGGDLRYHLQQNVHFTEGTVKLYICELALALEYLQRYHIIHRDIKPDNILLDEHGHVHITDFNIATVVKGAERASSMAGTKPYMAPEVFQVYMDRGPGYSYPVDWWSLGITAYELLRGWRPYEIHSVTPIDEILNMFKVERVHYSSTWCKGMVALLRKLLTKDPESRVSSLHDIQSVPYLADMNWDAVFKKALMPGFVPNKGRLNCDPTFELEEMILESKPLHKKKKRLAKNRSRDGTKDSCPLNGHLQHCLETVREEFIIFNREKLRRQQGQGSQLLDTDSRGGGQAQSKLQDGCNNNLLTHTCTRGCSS

Consider `Cc1sc(C(=O)NC2COC2)cc1-n1cc(NC(=O)Nc2c(F)cccc2Cl)cn1` [Compound 27, 4-(4-(3-(2-chloro-6-fluorophenyl)ureido)-1H-pyrazol-1-yl)-5-methyl-N-(oxetan-3-yl)thiophene-2-carboxamide], for which the remaining activity at 10 µM was 104% in experiment [1] (10 uM); 98.6% in experiment [2] (10 uM); 105% in experiment [3] (10 uM); 96.4% in experiment [4] (10 uM); 74.9% in experiment [5] (10 uM); 91.1% in experiment [6] (10 uM). Further, the remaining activity at 10 µM in experiment [7] (10 uM) is 89.8%; in experiment [8] (10 uM), 89.2%.

For the compound `O=C(Nc1cnn(-c2csc(C(=O)NC3COC3)c2)c1)Nc1c(F)cccc1Cl` [Compound 25, 4-(4-(3-(2-chloro-6-fluorophenyl)ureido)-1H-pyrazol-1-yl)-N-(oxetan-3-yl)thiophene-2-carboxamide], the remaining activity at 5 µM was 97.4% in experiment [1]; 91.2% in experiment [2]; 93.6% in experiment [3]; 89% in experiment [4]; 105% in experiment [5]; 82.8% in experiment [6]. Also, the values for the remaining activity at 5 µM in experiment [7] and in experiment [8] were 103% and 98.4%, respectively.

For the compound `O=C(Nc1cnn(-c2csc(C(=O)NC3COC3)c2)c1)Nc1ccccc1Cl` [Compound 17, 4-(4-(3-(2-chlorophenyl)ureido)-1H-pyrazol-1-yl)-N-(oxetan-3-yl)thiophene-2-carboxamide], the remaining activity at 5 µM is 103% in experiment [1]; 103% in experiment [2]; 92.7% in experiment [3]; 87.9% in experiment [4]; 196% in experiment [5]; 94.5% in experiment [6]. Moreover, the remaining activity at 5 µM in experiment [7] and in experiment [8] was 122% each time.
